In patent US20230313199A1, “TARGET FOR MODULATING BODY MASS” (Massachusetts Institute of Technology, priority 2020, published 2023):

Legend:
4B8^FL cells = assay: FPT intensity in 4B8 cells complemented with full length MFSD7C; format: cell-based, human; conditions: 40 μM heme 1 hour
Method: FIGS. 4A-4H show NTD of MFSD7C mediates heme effect on mitochondrial respiration. FIGS. 4A-4C show comparison of basal OCR (FIG. 4A), maximal OCR (FIG. 4B) and ECAR (FIG. 4C) of THP-1, 4B8, and 4B8^FL and 4B8^ΔN cells treated with vehicle or heme for 1 hour (n=18 separate experiments). […] Cells were incubated with FPT for 6 hrs, washed and reseeded in poly-lysine coated glass bottom dishes. After cells attached to the glass, medium containing 40 μM heme was added. Cells in the same field were imaged immediately and again 1 hour later. Relative FPT fluorescent intensities, normalized to THP-1, from three experiments are shown. (n=3 independent experiments). […] THP-1 cells were co-cultured with 4B8, 4B8^FL, or 4B8^ΔN in FPT solution for 6 hrs, washed and reseeded in poly-lysine coated glass bottom dishes. […] THP-1, 4B8, 4B8^FL and 4B8^ΔN cells were treated with vehicle or heme for 1 hour and MMP was measured by using JC-10 Mitochondrial Membrane Potential Assay Kit followed by flow cytometry. […] Shown are representative Western blotting data (FIG. 4G) and quantification of band intensities from n=3 independent experiments (FIG. 4H). P-values were calculated using two-way ANOVA (*p<0.05, **p<0.01, ***p<0.005). […]
In the second approach, we used fluorescent polymeric thermometer (FPT), which we synthesized in-house (see above). […] Then the fluorescence intensities were determined by a flow cytometer.

MFSD7C and SERCA2b = biological target: T1, MFSD7C and SERCA2b (Mus musculus, UniProt Q91X85); assay: Co-IP of MFSD7C and SERCA2b in transfected 293T cells; format: cell-based, murine; conditions: 293T cells in the presence of MG132, heme for one hour
T1 construct: expressed in transfected cells; called 293T
Method: FIGS. 5A-5F show MFSD7C and heme regulate thermogenesis through SERCA2b in THP-1 cells. […] 30 hours later, MG132 was added into half of the cells and the other half was not treated. Another 35 hours later, some cells were treated with 40 μM heme for 1 hour before lysis. Cell lysates were immunoprecipitated with anti-FLAG antibody, and eluted, followed by anti-HA immunoprecipitation and elution. Total cell lysate and elute were subjected to Western blotting and probed with anti-SERCA2b or anti-MFSD7C antibodies. Shown are representative data from one of three experiments. […] 24 hrs later, cells were either not treated or treated with 10 μM MG132 for either 6 or 12 hours. The cells were lysed and subjected to FLAG pull-down and blotted with anti-MFSD7C, anti-SERCA2b and anti-ubiquitin antibodies. Shown are representative data from one of three experiments. […] Parental THP-1 cells were either not treated or treated with heme before lysis. Shown are representative data from one of four experiments. […] Shown are representative data from one of two experiments. […] Cells were washed and treated with 40 μM heme for one hour before flow cytometry. Representative FPT histograms from one of three experiments are shown. […] Shown are representative FPT histograms from one of three experiments. […]

HP motif peptide = biological target: T2, HP motif peptide (Homo sapiens, UniProt Q9UPI3); assay: Heme absorbance-shift assay with wild-type HP motif peptide; format: binding; conditions: 100 μM heme, various concentrations of HP motif peptide
T2 construct: a synthetic 14-amino acid HP motif peptide; made in house; host or cells: chemical solid-phase synthesis (Koch Institute Biopolymers & Proteomics Core)
Method: Peptide synthesis. Wild-type HP motif peptide (HPSALAQPSGLAHP) and mutant HP motif peptide (APSALAQPSGLAAP) were synthesized using solid-phase synthesis and purified using HPLC by the Biopolymers & Proteomics Core at the Koch Institute for Integrative Cancer Research.
Heme absorbance-shift assay. Hemin was prepared fresh before each experiment. Approximately 20 mg of hemin (Sigma) was placed in a fresh tube and resuspended with 1 mL of DMSO. The hemin solution was slowly diluted while mixing with 1 mL of 2× buffer C (25 mM HEPES-NaOH pH 7.8, 10 mM NaCl), and aggregated hemin was eliminated by passing the solution through a 0.2 μm filter unit. Hemin concentration was determined by diluting the filtered solution with 1× buffer C 1:100 and using the extinction coefficient of 58,400 cm^−1M^−1 at 385 nm. For each reaction, the 200 μL reaction mix containing 100 μM hemin, 25 mM HEPES-NaOH pH 7.8, 10 mM NaCl, and various concentrations of wild-type or mutant NTD protein, was placed in a transparent 96-well plate. Absorbance intensity was measured using Tecan Infinite M200 Pro microplate reader, between 330 and 550 nm using 5 nm steps. The absorbance intensity for dissolved hemin was subtracted from absorbance intensity from hemin incubated with various concentrations of protein.

MCF7 cells = assay: Thermogenesis by FPT, parental MCF7 cells; format: cell-based, human; conditions: heme for 1 hour
Method: Shown are representative graphs of OCR output of the indicated cells with or without hematin treatment and their responses to oligomycin, FCCP, and rotenone plus antimycin A (FIG. 12B), basal OCR (FIG. 12C), maximal OCR (FIG. 12D), and ECAR (FIG. 12E) from two separate experiments with n=10 biologically independent samples. Data are presented as mean value±standard deviation. Each dot represents one technical replicate. […] Parental and knockout cells were incubated with no probe or FPT for 6 hours, and then washed twice. A portion of FPT-treated cells was treated with heme for 1 hour. FPT fluorescence intensity was quantified by flow cytometry. Shown are representative plots from two separate experiments. P-values were calculated using two-way ANOVA (***p<0.001).
In the second approach, we used fluorescent polymeric thermometer (FPT), which we synthesized in-house (see above). Parental and knockout THP-1 cells were mixed together, washed and incubated with FPT in 5% w/v glucose solution for 6 hrs. The cells were washed with PBS twice and reseeded in dishes with glass bottom that was coated with poly-lysine. The cells were imaged under Confocal Laser-Scanning Microscopy at 37° C. […] Then the fluorescence intensities were determined by a flow cytometer.

T1 sequence (Q91X85 whole entry): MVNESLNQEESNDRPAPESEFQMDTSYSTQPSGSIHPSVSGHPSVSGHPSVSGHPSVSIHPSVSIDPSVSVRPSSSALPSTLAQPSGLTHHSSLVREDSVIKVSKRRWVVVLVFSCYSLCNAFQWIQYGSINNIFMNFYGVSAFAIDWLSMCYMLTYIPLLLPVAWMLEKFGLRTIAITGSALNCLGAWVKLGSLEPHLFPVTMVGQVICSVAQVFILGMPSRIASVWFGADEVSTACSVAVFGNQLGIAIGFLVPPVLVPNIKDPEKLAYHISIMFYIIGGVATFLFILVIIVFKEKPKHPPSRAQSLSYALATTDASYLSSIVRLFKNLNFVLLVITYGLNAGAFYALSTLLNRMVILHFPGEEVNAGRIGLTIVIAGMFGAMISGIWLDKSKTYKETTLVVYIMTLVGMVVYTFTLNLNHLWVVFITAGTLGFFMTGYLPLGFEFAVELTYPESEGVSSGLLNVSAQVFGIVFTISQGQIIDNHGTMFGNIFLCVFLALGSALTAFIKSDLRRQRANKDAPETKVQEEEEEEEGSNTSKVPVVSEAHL

In the case of `C=CC1=C(C)c2cc3[n-]c(cc4[n-]c(cc5nc(cc1n2)C(C)=C5C=C)c(C)c4CCC(=O)O)c(CCC(=O)O)c3C.[Fe+2]` [heme], the FPT intensity (4B8^FL cells) is reported as “increased”, the “co-IP of SERCA2b with MFSD7C” value (MFSD7C and SERCA2b) is reported as “abolished” and the “absorbance shift of heme (Soret band, Q band)” value (HP motif peptide) is reported as “concentration-dependent increase in Soret band and Q band peaks”. For the same compound, the FTP intensity (MCF7 cells) was “significantly stimulated”.
